The conditions of data set [1]: for inhibition of formation of 2′,2′ bis methylnaltrexone degradant / inhibition of formation of 7-dihydroxy-methylnaltrexone degradant: in presence of iron, 40° C. and room temperature. As to the method: FIG. 1A and FIG. 1B: Effect of CaEDTA and NaEDTA on the formation of 2′,2-bis methylnaltrexone in the presence of iron at 40° C. (FIG. 1A) and room temperature, […] (FIG. 1B).
FIGS. 2A, 2B, 2C, and 2D: Effect of CaEDTA on the formation of 7-dihydroxy methylnaltrexone in solutions. The effect of CaEDTA and NaEDTA on the formation of 7-dihydroxy methylnaltrexone in the presence of iron at 40° C. (FIG. 2A) and room temperature, 25° (FIG. 2B) was assessed. […] The effect of CaEDTA on the formation of 7-dihydroxy methylnaltrexone in solution following one month storage at room temperature (FIG. 2C) and at 40° C. (FIG. 2D) was assessed. The presence of CaEDTA reduced formation of 7-dihydroxy methylnaltrexone at either temperature.
FIG. 3A and FIG. 3B: Effect of CaEDTA in methylnaltrexone solution on the formation of a methylnaltrexone degradant having an RRT 0.79 (“the 0.79 degradant”). The effect of CaEDTA and NaEDTA on the formation of the 0.79 degradant at room temperature, 25° (FIG. 3A) and at 40° C. (FIG. 3B) was assessed. Calcium EDTA was not effective at inhibiting formation of the 0.79 degradant, and may increase levels of degradant formation.
Inhibition of metal-catalyzed formation of 2,2′bis methylnaltrexone. […] We have found by HPLC analysis (Method B) the 2,2′bis methylnaltrexone degradant results in a peak having an RRT about 1.55. Fe^3+ is an ion that can get into the liquid formulation from several sources. For example, it can be leached from stainless steel process equipment, syringe needles, stoppers and amber vials. EDTA, as a metal chelating agent sequesters the available Fe^3+ in the solution, thereby preventing catalysis of the undesirable metal-catalyzed reactions. Methylnaltrexone solutions were prepared in 0.9% NaCl, in the presence of iron and various concentrations of sodium EDTA and calcium EDTA. Used throughout the experiments sodium EDTA is EDTA disodium dihydrate, and the terms sodium EDTA, EDTA disodium dihydrate, and NaEDTA are used interchangeably throughout. Used throughout the experiments calcium EDTA is calcium EDTA disodium, and the terms calcium EDTA, calcium EDTA disodium, and CaEDTA are used interchangeably throughout. Formation of 2,2′bis methylnaltrexone was assessed at room temperature as well as at 40° C. Addition of either sodium or calcium EDTA solution was effective at inhibiting formation of the 2,2′bis methylnaltrexone degradant.
We have found Ca^2+ chelating agent provides additional inhibition of formation of a 7-dihydroxy-methylnaltrexone degradant as compared to Na^2+ chelating agent. Methylnaltrexone solutions were prepared in 0.9% NaCl, in the presence of iron and various concentrations of sodium EDTA and calcium EDTA. Formation of 7-dihydroxy-methylnaltrexone was assessed at room temperature as well as at 40° C.

Another data set concerns opioid receptors. The conditions noted are these: found in U.S. Ser. No. 11/441,395 and 11/441,452; cited from earlier work.

We go through 4 compounds from patent US12303592B2, “Formulations for parenteral delivery of compounds and uses thereof” (Wyeth, LLC, priority 2006, dated 2025).

For `O=C([O-])CN(CCN(CC(=O)[O-])CC(=O)[O-])CC(=O)[O-].[Ca+2].[Na+].[Na+]` [calcium EDTA, calcium EDTA disodium], in data set [1], the “inhibition of formation of 2′,2′ bis methylnaltrexone degradant” value was “effective inhibitors” and the “inhibition of formation of 7-dihydroxy-methylnaltrexone degradant” value is listed as “effective inhibitor”. Also, in data set [1] (room temperature and 40° C.), the “inhibition of formation of the 0.79 degradant” value was “not effective”.

With `C[N+]1(CC2CC2)CCC23c4c5ccc(O)c4OC2C(=O)CCC3(O)C1C5` (single isomer, unassigned) [R—N isomer of methylnaltrexone], the opioid activity entry with opioid receptors is given as “opioid antagonist”.

For the compound `O.O.O=C([O-])CN(CCN(CC(=O)[O-])CC(=O)O)CC(=O)O.[Na+].[Na+]` [sodium EDTA, EDTA disodium dihydrate], in data set [1], the “inhibition of formation of 2′,2′ bis methylnaltrexone degradant” value is reported as “effective inhibitors” and the “inhibition of formation of 7-dihydroxy-methylnaltrexone degradant” value is recorded as “may even increase levels”.

With `C[N@@+]1(CC2CC2)CC[C@]23c4c5ccc(O)c4OC2C(=O)CCC3(O)C1C5` (single isomer, unassigned) [S—N isomer of methylnaltrexone], in the data set with opioid receptors, the opioid activity entry was “opioid agonist”.
